{
  "source": "patent US20180326021A1",
  "about": "“Methods and Compositions for the Treatment of Cytoplasmic Glycogen Storage Disorders” (Duke University, priority 2015, published 2018)",
  "key": {"[1]": {"system": "GSD IV mice", "test": "Short-term rhGAA enzyme replacement therapy in GSD IV mice", "format": "in vivo, mouse", "method": "(§1) Methods: A short-term study was conducted to determine the minimum effective dose (MED) of rhGAA treatment with 3 dosages: 20 mg/kg (human equivalent dose, n=6), 40 mg/kg (n=9), and 100 mg/kg (n=8). Male GSD IV mice received weekly intravenous injections of rhGAA were conducted for 4 week starting at age of 10 weeks. A group of age-matched untreated mice (n=8) were used as controls. To prevent anaphylactic reactions, the animals were administered 25 mg/kg diphenhydramine (i.p.) 10-15 min prior to enzyme administration. All mice were sacrificed 48 hours after the last injection following overnight fasting. Fresh tissues were immediately frozen and stored at −80° C. until use for GAA activity and glycogen content analyses. Protein concentration was measured using BCA method."}, "[2]": {"system": "primary muscle cells from GSD IIIa patients", "test": "rhGAA treatment of cultured primary muscle cells from GSD III patients", "format": "cell-based, human", "details": "normal and GSD III patient primary muscle cells, rhGAA added to culture", "method": "FIG. 2 illustrates an analysis of the skeletal muscle biopsies from two GSD Ma patients, a person (Pt. 1) and a person (Pt. 2). […] (B) Under EM, occasional lysosomal glycogen (arrow) was also seen in the myocytes (scale bar=1 μm). […] (E) GAA activity in normal and patient cells 48 h after adding recombinant human acid alpha-glucosidase (rhGAA, Myozyme, alglucosidase alfa) treatment. […] Mean±standard deviation is shown in C—F (n=4). The significance of differences between two different groups was assessed using the two-tailed, equal variance student T-test ([…])."}, "[3]": {"system": "GSD III mice", "test": "Short-term rhGAA enzyme replacement therapy in GSD III mice", "format": "in vivo, mouse", "method": "as §1, with “GSD III mice were used to test 3 dosages” for “A short-term study was conducted”, “treatment:” for “treatment with 3 dosages:”, “(n=6),” for “(human equivalent dose, n=6),”, “(n=5),” for “(n=9),”, “(n=7). Weekly” for “(n=8). Male GSD IV mice received weekly”, “10 -15” for “10-15”"}, "[4]": {"system": "primary GSD IV mouse muscle cells", "test": "rhGAA treatment of cultured primary myoblasts from GSD IV mice", "format": "cell-based", "method": "Primary myoblast cells were isolated from 7-day-old GSD IV mouse skeletal muscle. Early passage cells were seeded in 10-cm culture dishes with EMEM medium containing 10% FBS. When cells reached 90% confluence, rhGAA was added to the culture medium (final activity =1000 nmol/hr/ml). The cells were harvested 24 hours later to analyze glycogen content and GAA activity.\nReduction of glycogen deposition in GSD IV mouse myoblasts by rhGAA treatment was also confirmed by immunofluorescence staining using a mouse anti-glycogen monoclonal antibody ESG1A9mAb."}, "[5]": {"system": "patient with PRKAG2 pathogenic gene mutation", "test": "Alglucosidase alfa ERT in a patient with PRKAG2 mutation (case report)", "format": "in vivo, human", "details": "for overall clinical response (neurological, occupational and physical therapy reports): after reinitiation of ERT", "text": "A patient was born by caesarian section at 38 weeks gestation as a result of the nuchal cord being wrapped around their neck. The patient was noted to have hypotonia and generalized muscle weakness. They were areflexic and had feeding difficulties. The patient began developing severe lower respiratory infections which led to frequent admissions to the hospital. […] Following numerous recurrent pneumonias, and the history of muscle weakness, the patient's physicians raised Pompe disease as a potential diagnosis. […] Given the early findings of hypotonia and the low GAA enzyme activity, a diagnosis of non-classic infantile Pompe disease was made. The patient was initiated on ERT with alglucosdase alfa at a dose of 20 mg/kg every 2 weeks.\nBaseline assessments were done which included tests for AST (44 IU/L; normal range: <45 IU/L), ALT (20 IU/L; normal range: 9-80 IU/L), along with PT measures looking at muscle strength and function measures. […] Upon examination, the patient has developed more defined calf muscles, along with an improvement of […] strength and power. […] has grown physically stronger and has not had episodes in which […] lacks energy for consecutive days, becomes completely floppy, and is unable to hold their head up properly following a seizure.\nAt baseline, according to the MABC assessment, the patient achieved a Total Test Score of 68 ranking them in the 25th percentile. Five months after reinitiation of ERT, the patient achieved a Total Test Score of 73 on […] MABC assessment, ranking them in the 37th percentile. A minimal detectable change (MDC) for the MABC has been reported as 1.21 points, representing a true change in motor function. The results in this child show an increase of 5 points over 5 months, which is greater than the minimal important difference (MID) of the MABC, which has been reported as a change of 2.5 points shown over 6 months."}, "[6]": {"details": "20 mg/kg weekly i.v. for 4 weeks"}, "[7]": {"details": "40 mg and 100 mg rhGAA treatment"}, "[8]": {"details": "40 mg/kg weekly i.v. for 4 weeks"}, "[9]": {"details": "weekly rhGAA for 4 weeks at 20, 40 or 100 mg/kg, data not shown"}, "[10]": {"details": "rhGAA 1000 nmol/hr/ml in medium, cells harvested 24 hours later"}, "[11]": {"details": "over 5 months on ERT vs pre-ERT baseline"}, "[12]": {"details": "reassessment, 5 months post ERT"}},
  "note": "“And” between values parts separate entries of the source, which are not always exact repeats. Equal values may be shown once. “Also recorded” adds a separate entry of the source.",
  "data": [
    {"substance": "recombinant human acid alpha-glucosidase [rhGAA]", "values": [
      {"measurement": "glycogen in any tissue", "setting": "[1]; 20 mg/kg", "result": "failed to reduce glycogen in any tissue"},
      {"measurement": "reduction of glycogen accumulation in liver", "setting": "[1]; 20 mg/kg", "result": "not significant"},
      {"measurement": "GAA activity in heart, increase", "setting": "[1]; [6]", "result": 1.7, "unit": "fold"},
      {"measurement": "GAA activity in liver, increase over untreated controls", "setting": "[1]; [6]", "result": 29, "unit": "fold"},
      {"measurement": "liver glycogen decrease", "setting": "[1]; [7]", "result": "21-25%"},
      {"measurement": "GAA activity in heart, increase", "setting": "[1]; [8]", "result": 2.8, "unit": "fold"},
      {"measurement": "glycogen content in liver, change", "setting": "[1]; [8]", "result": "−21", "unit": "%"},
      {"measurement": "plasma alanine aminotransferase (ALT)", "setting": "[1]; 40 mg/kg, p<0.01 vs untreated", "result": "650±32", "unit": "U/L"},
      {"measurement": "liver/body weight ratio", "setting": "[1]; 40 mg/kg, p<0.05 vs untreated", "result": "5.0±0.2", "unit": "%"},
      {"measurement": "plasma aspartate aminotransferase (AST)", "setting": "[1]; 40 mg/kg, p=0.074 vs untreated", "result": "849±50", "unit": "U/L"},
      {"measurement": "GAA activity in skeletal muscles, increase", "setting": "[1]; 100 mg/kg", "result": 1.6, "unit": "fold"},
      {"measurement": "glycogen content in liver, change", "setting": "[1]; 100 mg/kg weekly i.v. for 4 weeks", "result": "−25", "unit": "%"},
      {"measurement": "GAA activity in tissues", "setting": "[1]; 20, 40, 100 mg/kg, dose dependent", "result": "significant increase"},
      {"measurement": "GAA activity in quadriceps, increase", "setting": "[1]; at either dosage (20 or 40 mg/kg)", "result": "negligible"},
      {"measurement": "GAA activity in gastrocnemius, increase", "setting": "[1]; either treated group (20 or 40 mg/kg)", "result": "less than 1 fold"},
      {"measurement": "anti-GAA antibodies generated, compared with that reported in GAA-KO mice", "setting": "[1]; [9]", "result": "significantly less"},
      {"measurement": "glycogen concentration", "setting": "[2]", "result": "significantly reduced"},
      {"measurement": "liver glycogen decrease", "setting": "[3]; [7]", "result": "24-25%"},
      {"measurement": "glycogen content in heart", "setting": "[3]; 40 mg and 100 mg treatments", "result": "significantly reduced"},
      {"measurement": "glycogen content in liver", "setting": "[3]; 40 mg and 100 mg treatments", "result": "significantly reduced"},
      {"measurement": "ratio of liver/body weight", "setting": "[3]; 40 mg and 100 mg treatments", "result": "reduced"},
      {"measurement": "glycogen content in any tissues", "setting": "[3]; 20-mg treatment", "result": "did not affect"},
      {"measurement": "glycogen content in skeletal muscles", "setting": "[3]; 40-mg and 100-mg treatment groups", "result": "no significant change"},
      {"measurement": "GAA enzyme uptake (GAA activity rank order of tissues)", "setting": "[3]; weekly i.v. for 4 weeks", "result": "liver>heart>diaphragm>leg muscles"},
      {"measurement": "plasma alanine aminotransferase (ALT)", "setting": "[3]; weekly rhGAA for 4 weeks", "result": "reduction"},
      {"measurement": "plasma alkaline phosphatase (ALP)", "setting": "[3]; weekly rhGAA for 4 weeks", "result": "reduction"},
      {"measurement": "plasma aspartate aminotransferase (AST)", "setting": "[3]; weekly rhGAA for 4 weeks", "result": "reduction"},
      {"measurement": "plasma creatine kinase (CK)", "setting": "[3]; weekly rhGAA for 4 weeks", "result": "reduction"},
      {"measurement": "anti-GAA antibodies generated, compared with that reported in GAA-KO mice", "setting": "[3]; [9]", "result": "significantly less"},
      {"measurement": "glycogen deposition (immunofluorescence staining)", "setting": "[4]; 4 hours after rhGAA treatment", "result": "reduction of glycogen was obvious"},
      {"measurement": "glycogen deposition (immunofluorescence staining)", "setting": "[4]; 24 hours after rhGAA treatment", "result": "became more evident"},
      {"measurement": "glycogen deposition (anti-glycogen antibody ESG1A9mAb staining)", "setting": "[4]; immunofluorescence staining", "result": "reduced glycogen deposition"},
      {"measurement": "GAA activity increase", "setting": "[4]; [10]", "result": 50, "unit": "%"},
      {"measurement": "glycogen content decrease", "setting": "[4]; [10]", "result": 24, "unit": "%"},
      {"measurement": "glycogen content", "setting": "[4]; rhGAA treated vs untreated cells", "result": "significantly (p<0.01) reduced"},
      {"measurement": "visual motor, fine motor, and gross motor skills (M-FUN)", "setting": "[5]; after five months of ERT", "result": "improvement"},
      {"measurement": "overall clinical response (neurological, occupational and physical therapy reports)", "setting": "[5]; listed as ERT", "result": "a clinical benefit was noted; also recorded: significant positive response"},
      {"measurement": "overall clinical response (neurological, occupational and physical therapy reports)", "setting": "[5]; listed as alglucosidase alfa", "result": "significant improvement; also recorded: significant musculoskeletal improvements"},
      {"measurement": "fatigue on reassessment", "setting": "[5]; five months of ERT, listed as ERT", "result": "less fatigue"},
      {"measurement": "Movement ABC percentile increase", "setting": "[5]; [11]", "result": 12},
      {"measurement": "Movement ABC score increase", "setting": "[5]; [11]", "result": 5, "unit": "points"},
      {"measurement": "Movement ABC Total Test Score", "setting": "[5]; re-assessment, 5 months after reinitiation of ERT", "result": 73},
      {"measurement": "Movement ABC percentile", "setting": "[5]; re-assessment, 5 months after reinitiation of ERT, listed as ERT", "result": "37 percentile and 37th percentile"},
      {"measurement": "M-FUN Fine Motor Progress Score", "setting": "[5]; [12]", "result": 394},
      {"measurement": "M-FUN Fine Motor Scaled Score", "setting": "[5]; [12]", "result": "5 (considered mild/"},
      {"measurement": "M-FUN Fine Motor assessment notes", "setting": "[5]; [12]", "result": "Patient's scaled scores show a fine motor improvement"},
      {"measurement": "M-FUN Gross Motor Progress Score", "setting": "[5]; [12]", "result": 407},
      {"measurement": "M-FUN Gross Motor Scaled Score", "setting": "[5]; [12]", "result": "3 (considered very"},
      {"measurement": "M-FUN Gross Motor reassessment notes", "setting": "[5]; [12]", "result": "gaining new motor skills and is improving in their current"},
      {"measurement": "M-FUN Visual Motor Progress Score", "setting": "[5]; [12]", "result": 496},
      {"measurement": "M-FUN Visual Motor Scaled Score", "setting": "[5]; [12]", "result": "9 (considered “average” or"},
      {"measurement": "M-FUN Visual Motor assessment notes", "setting": "[5]; [12]", "result": "Patient's scaled scores show a visual motor improvement"},
      {"measurement": "seizures", "setting": "[5]; since reinitiation of ERT", "result": "better controlled"},
      {"measurement": "gross motor abilities assessed by physical therapist", "setting": "[5]; three months after first initiation of ERT, 20 mg/kg every 2 weeks", "result": "began improving"}
    ]}
  ]
}
